The text below walks through data of patent US4535075A, “Dithiolane derivative, process for producing the same and use thereof” (Nihon Nohyaku Co., Ltd., priority 1982, dated 1985).

Converted amounts (≈) assume the structure as drawn. Like-named read-outs stand apart in the source and are kept apart here.

A short description of data set [1]: acute oral toxicity (LD50). To be noted: in vivo, male rat. On the procedure:
The compounds represented by the general formula (I) are low in toxicity to mammals.
Their acute oral toxicities to male rat expressed as LD50 values are shown below.
For example, the LD50 values of the compound No. 1, No. 2, No. 3, No. 8 and No. 12 are 1,000-3,000 mg/kg, 3,000-5,000 mg/kg, more than 5,000 mg/kg, more than 5,000 mg/kg and 1,000-3,000 mg/kg, respectively.

The subject of data set [2] is liver damage induced by carbon tetrachloride. Description: Protective (Controlling) effect on liver damage induced by carbon tetrachloride. The format is in vivo, mice (dd strain). As to conditions: 250 mg/kg p.o., CCl4 0.05 ml/kg after 6 h, 24 h; for p-GPT: CCl4 alone >2,100; for Liver Damage Index: average of 5 mice, 0 Normal, 2 Slightly recognized, 4 Clearly observable damage, 6 Heavy damage, CCl4 alone 5.0. Summed up:
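Six-week-old male dd mice received compound at 250 mg/kg orally in olive oil or diethyleneglycol, then carbon tetrachloride 0.05 ml/kg orally 6 h later.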

For data set [3], the system named is liver damage induced by α-naphthyl isothiocyanate (ANIT). The data set can be described thus: Protective effect on liver damage induced by ANIT (Method 1). It is filed as in vivo, mice. To be noted: 2 x 250 mg/kg p.o., ANIT 35 mg/kg p.o., 24 h. The source says: Protective effect on liver damage induced by α-naphthyl isothiocyanate (referred to as "ANIT", hereinafter).
It is well known that experimental cholestasis is accomplished by administration with ANIT in mice and rats, and studied as a cholestasis model in human being.
ANIT and CCl4 induce necrosis in the liver. ANIT causes it as small focci in perilobular parenchyna and CCl4 causes centrilobular parenchymal coagulation necrosis.
From these information, the elevation of plasma GPT activity in these models are thought to have defferent characteristics.
Test compounds, dissolved or suspended in olive oil or diethyleneglycol, were orally administered 2 times at intervals of 3 hrs to mice at the dose of 250 mg/kg. At 3 hrs after the second administration with test compounds, ANIT was administered orally at 35 mg/kg.
Mice were sacrificed at 24 hrs after ANIT administration and blood samples were collected. The blood samples were centrifuged and plasma was obtained.
Plasma GPT activity and alkaline phosphatase activity were determined by Reitman & Frankel's method and Bessey-Lowry's method, respectively. The activity was expressed with Karmen Unit and Bessey-Lowry Unit, respectively.

Another data set is described as follows: water solubility. The format is physicochemical.
Data set [4] relates to fatty liver induced by carbon tetrachloride. Description: Protective effect on fatty liver (carbon tetrachloride). The format is in vivo, rats (SD strain). As to conditions: percentage of mean value in carbon tetrachloride alone group, 100 mg/kg/day p.o. for 4 days, control 32.0. On the procedure: Carbon tetrachloride also induces fatty liver. Carbon tetrachloride is generally considered to damage microsome and thereby to inhibit protein synthesis and induce fatty liver.
Carbon tetrachloride was subcutaneously administered to 5-6 week-old male rats (SD strain) for 4 days at the dose of 0.5 ml/kg/day.
Simultaneously, the compound of the present invention was orally administered to the rats for 4 days at the dose of 30 mg/kg/day or 100 mg/kg/day.
On the 5th day, the rats were sacrificed by exsanguination.
The controlling (protective) effect was evaluated by determining the content of triglyceride in the liver.
Triglyceride was determined colorimetrically by chromotropic acid method.
Each value represented the percentage of mean value in carbon tetrachloride alone group.

The mark [5] stands for this setting: Table 3-1, control 3.3, ANIT alone 5.3.
The mark [6] stands for this setting: Table 3-1, control 7.4, ANIT alone 324.0.

The term LD50 denotes the dose at which mortality reaches 50%. Lower therefore signals a more toxic substance. Compound `CCCCCOC(=O)C(C(=O)OCCCCC)=C1SC(O)C(O)S1` (centres unmarked) [Compound 8] had an LD50 in data set [1] of more than 5000 mg/kg. In data set [2], the p-GPT is reported as 21 Karmen units and the “Liver Damage Index” value is reported as 0.0. This compound also gave an Alkaline phosphatase activity in data set [3] (setting [5]) of 4.3 B-L.V. Further, the p-GPT in data set [3] (setting [6]) is listed as 56.0 K.U.
As usually defined, the solubility is the concentration that dissolves in the medium under given conditions. `CC(C)OC(=O)C(C(=O)OC(C)C)=C1SC(O)C(O)S1` (centres unmarked) [Compound 23, diisopropyl 4,5-dihydroxy-1,3-dithiolan-2-ylidenemalonate]: in data set [2], the p-GPT was 22.5 Karmen units and the “Liver Damage Index” value was found to be 0.0. Further, the Alkaline phosphatase activity in data set [3] (setting [5]) was 4.0 B-L.V. In data set [3] (setting [6]), this compound showed a p-GPT of 76.0 K.U. Moreover, in “water solubility” (in water at 20° C., read-out: water solubility), the solubility came to 2000 µg/mL (≈ 6.2 mM).
Consider `CC(C)COC(=O)C(C(=O)OCC(C)C)=C1SC(O)C(O)S1` (centres unmarked) [Compound 5], for which the p-GPT in data set [2] is 135 Karmen units; in data set [3] (Table 3-2, ANIT alone >653.7) it was 134.8 K.U. The “Liver Damage Index” value in data set [2] turned out to be 0.0. Further, the Triglyceride in data set [4] is recorded as 40.0%. This compound returned an Alkaline phosphatase activity in data set [3] (Table 3-2, ANIT alone 5.3) of 3.5 B-L.V.
For the compound `CCCOC(=O)C(C(=O)OCCC)=C1SC(O)C(O)S1` (centres unmarked) [Compound 3], in data set [1], the LD50 was more than 5000 mg/kg. In data set [2], the p-GPT came out at 12 Karmen units and the “Liver Damage Index” value stood at 0.2. In data set [4], this compound showed a Triglyceride of 39.0%. This compound also displayed an Alkaline phosphatase activity in data set [3] (setting [5]) of 4.7 B-L.V. For the same compound, the p-GPT in data set [3] (setting [6]) is recorded as 53.0 K.U.
`COC(=O)C(C(=O)OC)=C1SC(O)C(O)S1` (centres unmarked) [Compound 1]: the LD50 in data set [1] was 1000 to 3000 mg/kg. The p-GPT in data set [2] was 23 Karmen units; in data set [3] (setting [6]), 128.0 K.U. Moreover, the “Liver Damage Index” value in data set [2] is given as 0.0. The Triglyceride in data set [4] was determined as 57.5%. In addition, the Alkaline phosphatase activity in data set [3] (setting [5]) was 3.9 B-L.V. Further, the solubility in the data set “water solubility” (2% gum arabic aqueous solution, in 2% gum-arabia aqueous solution, read-out: solubility) was determined as 20000 µg/mL (≈ 75.1 mM).
In data set [1], `CCOC(=O)C(C(=O)OCC)=C1SC(O)C(O)S1` (centres unmarked) [Compound 2, diethyl 4,5-dihydroxy-1,3-dithiolan-2-ylidenemalonate] returned a 50% lethal dose (LD50) of 3000 to 5000 mg/kg. In addition, in data set [2], the p-GPT was 15 Karmen units and the “Liver Damage Index” value turned out to be 0.0. The compound further showed a Triglyceride in data set [4] of 46.6%. This compound also showed an Alkaline phosphatase activity in data set [3] (setting [5]) of 4.4 B-L.V. The compound also returned a p-GPT in data set [3] (setting [6]) of 28.0 K.U.
In turn, `C=CCOC(=O)C(C(=O)OCC=C)=C1SC(O)C(O)S1` (centres unmarked) [Compound 12, diallyl 4,5-dihydroxy-1,3-dithiolan-2-ylidenemalonate] returned an LD50 in data set [1] of 1000 to 3000 mg/kg. Also, in data set [2], the p-GPT amounted to 63 Karmen units and the “Liver Damage Index” value came to 1.0. In data set [4], this compound returned a Triglyceride of 35.4%. In data set [3] (setting [5]), this compound yielded an Alkaline phosphatase activity of 4.9 B-L.V. In data set [3] (setting [6]), this compound gave a p-GPT of 19.9 K.U. For the same compound, in the data set “water solubility” (water), the concentration in solution (solubility) was 2200 µg/mL (≈ 6.91 mM).
